Experiments:
TeCphA1 [1] = target: T1, TeCphA1 (Trichodesmium erythraeum, UniProt Q113V7); test: cryo-EM structure, […] Å (C1); format: binding; conditions: complex with ATPγS, (β-Asp-Arg)4, Mg2+; 100 mM L-aspartate, pH 8.2; G domain site, seen in chain D
T1 construct: gene Tery_1965; full-length, C-terminal His6 tag (pET-22b(+), NdeI/XhoI), E. coli BL21(DE3); D2 homotetramer; N (1-161), G (162-487), M (488-876) domains

TeCphA1 [2] = target: T1, TeCphA1; test: phosphate release, molybdenum blue colorimetry; Michaelis-Menten fit; format: biochemical; conditions: one substrate varied; L-aspartate 5 mM, L-arginine 0.5 mM, (β-Asp-Arg)4 2 mM; 20 mM MgCl2, pH 8.2, 30°C; two ATP sites (G and M domains)
TeCphA1 [3] = target: T1, TeCphA1; test: cryo-EM structure, […] Å; format: binding; conditions: 4 mM ATPγS, 20 mM MgCl2, pH 8.2; G and M domain sites; also in substrate-bound 7WAE (C1) and 7WAF (C2)
[4] = target: cyanophycin synthetase (CphA1) from Trichodesmium erythraeum IMS101 (Trichodesmium erythraeum IMS101); test: cryo-EM structure; single-particle cryo-EM of TeCphA1 in the apo, ATPγS-bound and substrate-bound states; 2-12 μM TeCphA1, Tris-HCl pH 8.0-8.2
purified protein = substrate: N[C@@H](CC(=O)O)C(=O)O; test: purified protein; conditions: one substrate varied, other substrates at ATP 4 mM, L-arginine 0.5 mM, (β-Asp-Arg)4 2 mM, 20 mM MgCl2, 20 mM KCl, pH 8.2, 30°C, positively cooperative, Hill fit

N[C@@H](CC(=O)O)C(=O)O [L-aspartate]
cryo-EM structure, 2.64 Å (C1) (TeCphA1 [1]): the substrate aspartate was observed only in one protomer (chain D)

Nc1ncnc2c1ncn2[C@@H]1O[C@H](COP(=O)(O)OP(=O)(O)OP(=O)(O)O)[C@@H](O)[C@H]1O [ATP]
apparent Km (TeCphA1 [2]): we have determined the apparent Km value for ATP

Nc1ncnc2c1ncn2[C@@H]1O[C@H](COP(=O)(O)OP(=O)(O)OP(O)(O)=S)[C@@H](O)[C@H]1O [ATPγS]
cryo-EM structure, 2.96 Å (TeCphA1 [3]): 7WAD for TeCphA1 bound with ATPγS

cyanophycin synthetase (CphA1) from Trichodesmium erythraeum IMS101 (enzyme)
stoichiometry N [4]: 4

B1: TeCphA1 (Trichodesmium erythraeum IMS101) (protein)
chain: MKILKLQTLRGPNYWSIHRHKLVVMRLDLEDLYEKYTSDIPGFYKGLTEVLPSLVEHLCSPGVKGGFLTRVEKGTLIGHVIEHVAIELQELAGMPVGFGRTRETSTTGVFQVVIEYENEQAGRYAARAAVRLCQSIVDTGTYPATELQQDLEDLKELKNQASLGPSTEAIVKEAEARGIPWTQLGARFMIQFGYGVNQKKIQATLSNQTGILGVELACDKEGTKRILKDAGVPVPRGTVARYFDELQDAIEYVGGYPIVIKPLDGNHGRGITIDVKNWQEAEEAYDLARKASKTKTVIVERYYTGKDHRVLVVNGKVVAVAERVPAHVVGNGKSTIAELIEETNRDPQRGDGHDNILTRITVDKSALDILGKQGYSIDSIPLKGKKCFLRATANLSTGGIAVDRTDEIHPENVWLLSRVAKIIGLDIAGIDVVTEDISQPLREVEGVIVEVNAAPGFRMHVAPSRGLARNVAGAVMDMLFPGSKNGRIPILSVTGTNGKTTTTRLLAHIIKQTGKVVGYTTTDGTYIGEYLAETGDNTGPQSAHLILSDPTVEVAVLETARGGILRSGLGFSSCEVGIVLNVTADHLGIGDIDTIEQLAKLKSVVAESVMPKGYAVLNAEDPLVAAMADRVKGQVAYFSMDPNNELLLRHTEAGGLAAIYENGYISILKGDWTLRIEKAVNVPITMAGKAPFMIANALAACLAVFTQGVKIEHIRKGLSTFVASVDQTPGRMNMFNMGSYHALVDYAHNPASYEALGGFVRNWPGKRIGVVGGPGDRRDEDFVSLGELAADIFDEIIIKEDDDTRGRPRGNAAELICQGVKQFLNGIKNSESKATYESILDETAAINTALDRAPIDGLVVILPESVNRAISLIEGRHVIQDIELLQDSQREPKDQEVLKSSI
K0.5 (purified protein): 18.0 ± 1.1 mM

Reference: PMC9427784, “Structural bases for aspartate recognition and polymerization efficiency of cyanobacterial cyanophycin synthetase” (Nature Communications, 2022)
